# “Also recorded” adds a separate entry of the source. Bridge positions count the residues as written; N and C are the ends. Ends that are not written are not given here.
# Test system: osteoclast precursors
# Test: Osteoclast differentiation by RANKL, TRAP assay and count of TRAP-positive multinucleated cells
# Assay type: cell-based, rat
# Settings: RANKL-induced differentiation, peptides treated by concentrations, TRAP assay, FIGS. 6B and 7
# Experimental: That is, osteoclast precursors of rats were extracted from tibia and the femoral region of 5 to 8-week male rats, and purified. The osteoclast precursors were cultured in α-MEM containing 30 ng/ml of M-CSF and 10% FBS in 96-well plates (1×10^5/ml, 200 μl/well). The cells were cultured at 37° C. in a wet atmosphere containing 5% CO2. Differentiation of the osteoclast precursors were measured by a value of tartrate-resistant acid phosphatase (TRAP) activity in vitro. The TRAP staining assay was performed using a matrix Naphthol AS phosphate in 100 mM sodium acetate (pH 5.2). TRAP-positive multinucleated cells were calculated as osteoclast-like multinucleated cells using a microscope, and the assay described above were repeated three times to obtain statistical data.
# In the condition of differentiating osteoclasts by the RANKL, 5 peptides (L3-3, L3-3S, L3-3N, L3-3A, and L3-3B) manufactured in Example 5 were treated by concentrations to observe a degree of inhibition, and the results are shown in FIGS. 6 and 7.
substance,measurement,value
Ser-Asp-Cys-Glu-Cys-Ser-Arg-Arg (SDCECSRR; disulfide 3-5) [L3-3B],inhibitory effect on osteoclast differentiation,better effects than conventionally disclosed peptides (L3-3 and L3-3S); also recorded: extraordinarily higher inhibitory effect than L3-3A

# From patent US9085642B2, “Peptide inhibiting rankl-rank interaction and the use thereof” (RESEARCH & BUSINESS FOUNDATION SUNGKYUNKWAN UNIVERSITY, priority 2013, dated 2015)
